Experiments:
human erythrocytes = assay: Erythrocyte uptake of 35S-labeled compounds
Method: In order to test the ability of human erythrocytes to take up the above enediol and its ethyl ester derivative, suspensions of washed human erythrocytes were separately incubated with [^35 S] GSH, [^35 S]S-(N-hydroxy N-methylcarbamoyl) glutathione, and with [^35 S] S-(N-hydroxy N-methylcarbamoyl) glutathione[glycyl]-O-ethyl ester. The tests were conducted with 50:50 (v:v) erythrocytes in PBS buffer at 37° C. in the presence of 8.5 mM extracellular [^35 S] labeled compounds.

Colon Cancer (KMZOLZ) = assay: NCI tumor cell growth inhibition, colon cancer KMZOLZ
Source text: (§1) ^a Concentration for 50% cell growth inhibition versus nodrug
(§2) ^b Concentration for total cell growth inhibition versus nodrug

Renal Cancer (ACHN) = assay: NCI tumor cell growth inhibition, renal cancer ACHN
Source text: as §1, §2

CNS Cancer (SNB-75) = assay: NCI tumor cell growth inhibition, CNS cancer SNB-75
Source text: as §1, §2

Ovarian Cancer (SK-OV-3) = assay: NCI tumor cell growth inhibition, ovarian cancer SK-OV-3
Source text: as §1, §2

Melanoma (UACC-62) = assay: NCI tumor cell growth inhibition, melanoma UACC-62
Source text: as §1, §2

[1] = test system: Non-Small Cell Lung Cancer (HOP-18); assay: NCI tumor cell growth inhibition, non-small cell lung cancer HOP-18
Source text: as §1, §2

[2] = target: bovine liver glyoxalase II (Bos taurus, UniProt Q3B7M2); assay: Substrate and inhibition studies with bovine liver glyoxalase II
Method: The standard errors for Vm and Km were obtained by analysis of the initial rate data using the HYPER program of Cleland.
^a HEPES buffer (100 mM, pH 7.4), 25° C.
^b Listed values are relative to Vm for SD-lactoylglutathione.
^c Inhibition constants obtained from using the enediol analogs as

[3] = test system: Human Leukemia 60 (HL60) cells; assay: Growth inhibition and kill of human leukemia 60 cells; format: cell-based; conditions: HL60, 72 hr. incubation
Method: The observation that compounds 2 and 6(c) inhibit tumor cell growth, but were not strongly cytotoxic to tumor cells at the concentrations tested, prompted the synthesis of diethyl esters of compounds 6(a), 6(b), and 6(c). These derivatives were then tested with human leukemia cells (HL60 cells) grown in RPMI/fetal calf serum medium at 37° C.
^c Concentration for 50% cell kill.

[4] = of substituent R; cited from earlier work
[5] = 0 h, 8.5 mM extracellular, 37° C.
[6] = Homo sapiens, 48 h, read-out: GI (concentration for 50% cell growth inhibition)
[7] = Homo sapiens, read-out: inhibition of cell growth
[8] = Homo sapiens, SK-OV-3, read-out: inhibition of cell growth
[9] = Homo sapiens, UACC-62, read-out: inhibition of cell growth

Structure (SMILES): CN(O)C(=O)SC[C@H](NC(=O)CC[C@H](N)C(=O)O)C(=O)NCC(=O)O [[^35 S] .circle-solid., [^35 S] S-(N-Hydroxy N-Methylcarbamoyl) Glutathione]
- Extracellular Total 35S species (human erythrocytes; 0 h): 8.44 mM
- Extracellular [35S] GSH + [35S] GSSG (human erythrocytes; 0 h): ~ 0.01 mM
- Extracellular [35S] S-(N-hydroxy N-methylcarbamoyl) glutathione (human erythrocytes; 0 h): 8.20 mM
- Intracellular Total 35S species (human erythrocytes; [5]): ~ 0 mM
- Extracellular Total 35S species (human erythrocytes; 6 h): 8.57 mM
- Extracellular [35S] GSH + [35S] GSSG (human erythrocytes; 6 h): 0.15 mM
- Extracellular [35S] S-(N-hydroxy N-methylcarbamoyl) glutathione (human erythrocytes; 6 h): 8.32 mM
- Intracellular Total 35S species (human erythrocytes; 6 h): 0.02 mM
- Extracellular Total 35S species (human erythrocytes; 12 h): 8.67 mM
- Extracellular [35S] GSH + [35S] GSSG (human erythrocytes; 12 h): 0.14 mM
- Extracellular [35S] S-(N-hydroxy N-methylcarbamoyl) glutathione (human erythrocytes; 12 h): 8.39 mM
- Intracellular Total 35S species (human erythrocytes; 12 h): 0.03 mM
- Intracellular [35S] GSH + [35S] GSSG (human erythrocytes; 12 h): ~ 0.01 mM
- Intracellular [35S] S-(N-hydroxy N-methylcarbamoyl) glutathione (human erythrocytes; 12 h): ~ 0.01 mM
- Extracellular Total 35S species (human erythrocytes; 24 h): 8.24 mM
- Extracellular [35S] GSH + [35S] GSSG (human erythrocytes; 24 h): 0.14 mM
- Extracellular [35S] S-(N-hydroxy N-methylcarbamoyl) glutathione (human erythrocytes; 24 h): 7.96 mM
- Intracellular Total 35S species (human erythrocytes; 24 h): 0.12 mM
- Intracellular [35S] GSH + [35S] GSSG (human erythrocytes; 24 h): 0.03 mM
- Intracellular [35S] S-(N-hydroxy N-methylcarbamoyl) glutathione (human erythrocytes; 24 h): 0.08 mM
- Extracellular Total 35S species (human erythrocytes; 36 h): 8.24 mM
- Extracellular [35S] GSH + [35S] GSSG (human erythrocytes; 36 h): 0.13 mM
- Extracellular [35S] S-(N-hydroxy N-methylcarbamoyl) glutathione (human erythrocytes; 36 h): 7.96 mM
- Intracellular Total 35S species (human erythrocytes; 36 h): 0.31 mM
- Intracellular [35S] GSH + [35S] GSSG (human erythrocytes; 36 h): 0.04 mM
- Intracellular [35S] S-(N-hydroxy N-methylcarbamoyl) glutathione (human erythrocytes; 36 h): 0.26 mM
- Extracellular Total 35S species (human erythrocytes; 48 h): 8.50 mM
- Extracellular [35S] GSH + [35S] GSSG (human erythrocytes; 48 h): 0.14 mM
- Extracellular [35S] S-(N-hydroxy N-methylcarbamoyl) glutathione (human erythrocytes; 48 h): 8.19 mM
- Intracellular Total 35S species (human erythrocytes; 48 h): 0.44 mM
- Intracellular [35S] GSH + [35S] GSSG (human erythrocytes; 48 h): 0.04 mM
- Intracellular [35S] S-(N-hydroxy N-methylcarbamoyl) glutathione (human erythrocytes; 48 h): 0.37 mM

Structure (SMILES): N[C@@H](CCC(=O)N[C@@H](CSC(=O)N(O)c1ccc(Br)cc1)C(=O)NCC(=O)O)C(=O)O [Compound 6c, S-(N-Hydroxy-N-4-bromophenylcarbamoyl) glutathione]
- IC50 (Colon Cancer (KMZOLZ); [6]): 40 µM
- inhibition at 100 µM (Colon Cancer (KMZOLZ); [7]): 80%
- inhibition of cell growth (Colon Cancer (KMZOLZ); KMZOL2, 10^-6 and 10^-5): about 10%
- LC50 (concentration for 50% cell kill) (Colon Cancer (KMZOLZ); KMZOLZ, 48 hrs. incubation): > 1000 µM
- TGI (concentration for total cell growth inhibition) (Colon Cancer (KMZOLZ); KMZOLZ, 48 hrs. incubation): ~ 320 μM
- LC50 (concentration for 50% cell kill) (Renal Cancer (ACHN); 48 hrs. incubation): > 1000 µM
- TGI (concentration for total cell growth inhibition) (Renal Cancer (ACHN); 48 hrs. incubation): ~ 200 μM
- IC50 (Renal Cancer (ACHN); [6]): 25 µM
- inhibition at 10 µM (Renal Cancer (ACHN); [7]): 30%
- inhibition at 100 µM (Renal Cancer (ACHN); [7]): ~95%
- inhibition of cell growth (CNS Cancer (SNB-75); CNS human cancer cells, 10^-6 M and 10^-5 M): about 20%
- IC50 (CNS Cancer (SNB-75); Homo sapiens, SNB-75, 48 h, read-out: GI (concentration for 50% cell growth inhibition)): 63 µM
- inhibition at 100 µM (CNS Cancer (SNB-75); Homo sapiens, SNB-75, read-out: inhibition of cell growth): 60%
- LC50 (concentration for 50% cell kill) (CNS Cancer (SNB-75); SNB-75, 48 hrs. incubation): > 1000 µM
- TGI (concentration for total cell growth inhibition) (CNS Cancer (SNB-75); SNB-75, 48 hrs. incubation): ~ 1000 μM
- IC50 (Ovarian Cancer (SK-OV-3); Homo sapiens, SK-OV-3, 48 h, read-out: GI (concentration for 50% cell growth inhibition)): 32 µM
- inhibition at 1 µM (Ovarian Cancer (SK-OV-3); [8]): ~40%
- inhibition at 100 µM (Ovarian Cancer (SK-OV-3); [8]): > 80%
- inhibition of cell growth (Ovarian Cancer (SK-OV-3); SK-OV-3, 10^-5): about 30%
- LC50 (concentration for 50% cell kill) (Ovarian Cancer (SK-OV-3); SK-OV-3, 48 hrs. incubation): > 1000 µM
- TGI (concentration for total cell growth inhibition) (Ovarian Cancer (SK-OV-3); SK-OV-3, 48 hrs. incubation): ~ 250 μM
- IC50 (Melanoma (UACC-62); Homo sapiens, UACC-62, 48 h, read-out: GI (concentration for 50% cell growth inhibition)): 126 µM
- inhibition at 10 µM (Melanoma (UACC-62); [9]): ~20%
- inhibition at 100 µM (Melanoma (UACC-62); [9]): 50%
- inhibition of cell growth (Melanoma (UACC-62); UACC-62, 10^-6 M and lower concentrations): minimal inhibition
- LC50 (concentration for 50% cell kill) (Melanoma (UACC-62); UACC-62, 48 hrs. incubation): > 1000 µM
- TGI (concentration for total cell growth inhibition) (Melanoma (UACC-62); UACC-62, 48 hrs. incubation): > 1000 µM
- cell growth inhibition ([1]; HOP-18, 10^-6 to 10^-5 M): about 15%
- LC50 (concentration for 50% cell kill) ([1]; HOP-18, 48 hrs. incubation): > 1000 µM
- TGI (concentration for total cell growth inhibition) ([1]; HOP-18, 48 hrs. incubation): ~ 250 μM
- IC50 ([1]; Homo sapiens, HOP-18, 48 h, read-out: GI (concentration for 50% cell growth inhibition)): 40 µM
- inhibition at 100 µM ([1]; Homo sapiens, HOP-18, read-out: cell growth inhibition): ~80%
- Ki [2]: 1.2 ± 0.4 µM
- Vm (rel.) ([2]; relative to Vm for S-D-lactoylglutathione, HEPES buffer (100 mM, pH 7.4), 25° C.): (2.1 ± 0.4) × 10^-5
- LC50 (concentration for 50% cell kill) [3]: ~ 300 μM
- TGI (concentration for total cell growth inhibition) [3]: 63 µM
- IC50 ([3]; Homo sapiens, HL-60, read-out: GI (concentration for 50% cell growth inhibition)): 20 µM
- π (Hansch hydrophobicity constant) [4]: 3.25

Structure (SMILES): N[C@@H](CCC(=O)N[C@@H](C[35SH])C(=O)NCC(=O)O)C(=O)O [[^35 S] GSH, reference compound]
- Extracellular Total 35S species (human erythrocytes; 0 h): 8.48 mM
- Extracellular [35S] GSH (human erythrocytes; 0 h): 7.95 mM
- Extracellular [35S] GSSG (human erythrocytes; 0 h): 0.43 mM
- Intracellular Total 35S species (human erythrocytes; [5]): ~ 0 mM
- Extracellular Total 35S species (human erythrocytes; 6 h): 8.56 mM
- Extracellular [35S] GSH (human erythrocytes; 6 h): 7.90 mM
- Extracellular [35S] GSSG (human erythrocytes; 6 h): 0.53 mM
- Intracellular Total 35S species (human erythrocytes; 6 h): 0.04 mM
- Intracellular [35S] GSH (human erythrocytes; 6 h): 0.02 mM
- Intracellular [35S] GSSG (human erythrocytes; 6 h): 0.02 mM
- Extracellular Total 35S species (human erythrocytes; 12 h): 8.61 mM
- Intracellular Total 35S species (human erythrocytes; 12 h): 0.05 mM
- Extracellular Total 35S species (human erythrocytes; 24 h): 8.38 mM
- Intracellular Total 35S species (human erythrocytes; 24 h): 0.13 mM
- Extracellular Total 35S species (human erythrocytes; 36 h): 8.37 mM
- Intracellular Total 35S species (human erythrocytes; 36 h): 0.28 mM
- Extracellular Total 35S species (human erythrocytes; 48 h): 8.23 mM
- Extracellular [35S] GSH (human erythrocytes; 48 h): 5.31 mM
- Extracellular [35S] GSSG (human erythrocytes; 48 h): 2.49 mM
- Intracellular Total 35S species (human erythrocytes; 48 h): 0.48 mM
- Intracellular [35S] GSH (human erythrocytes; 48 h): 0.10 mM
- Intracellular [35S] GSSG (human erythrocytes; 48 h): 0.27 mM

Source: US5616563A, “Glutathione N-hydroxycarbamoyl thioesters and method of inhibiting neoplastic growth” (University of Maryland Baltimore Campus, priority 1994, dated 1997)
